This test deals with T1, NLRP3 (Homo sapiens, UniProt Q96P20).
T1 construct: Seed THP-1 cells (25,000 cells/well) containing 1.0 μg/ml LPS; host or cells: THP-1 cells, LPS-primed, nigericin-stimulated
Briefly: THP-1 cells pyroptosis assay (LPS-primed, nigericin-stimulated, resazurin readout). Conditions: 1 μg/ml LPS, 5 μM nigericin. In kind it is cell-based. How it is done: THP-1 cells (ATCC #TIB-202) were grown in RPMI containing L-glutamine (Gibco #11835) supplemented with 1 mM sodium pyruvate (Sigma #S8636) and penicillin (100 units/ml)/streptomycin (0.1 mg/ml) (Sigma #P4333) in 10% Fetal Bovine Serum (FBS) (Sigma #F0804). The cells were routinely passaged and grown to confluency (˜10^6 cells/ml). On the day of the experiment, THP-1 cells were harvested and resuspended into RPMI medium (without FBS). The cells were then counted and viability (>90%) checked by Trypan blue (Sigma #T8154). Appropriate dilutions were made to give a concentration of 625,000 cells/ml. To this diluted cell solution was added LPS (Sigma #L4524) to give a 1 μg/ml Final Assay Concentration (FAC). 40 μl of the final preparation was aliquoted into each well of a 96-well plate. The plate thus prepared was used for compound screening.
The following method step-by-step assay was followed for compound screening. • 1. Seed THP-1 cells (25,000 cells/well) containing 1.0 μg/ml LPS in 40 μl of RPMI medium (without FBS) in 96-well, black walled, clear bottom cell culture plates coated with poly-D-lysine (VWR #734-0317) • 2. Add 5 μl compound (8 points half-log dilution, with 10 μM top dose) or vehicle (DMSO 0.1% FAC) to the appropriate wells • 3. Incubate for 3 hrs at 37° C. in 5% CO2 • 4. […] Plates were read in an Envision reader at Ex 560 nm and Em 590 nm • 9. […]
Background: The colour change of resazurin is a common sign of viable cells or microbes.

Structures are written as SMILES. pIC50: −log10 of the molar value.

T1 sequence (Q96P20 whole entry): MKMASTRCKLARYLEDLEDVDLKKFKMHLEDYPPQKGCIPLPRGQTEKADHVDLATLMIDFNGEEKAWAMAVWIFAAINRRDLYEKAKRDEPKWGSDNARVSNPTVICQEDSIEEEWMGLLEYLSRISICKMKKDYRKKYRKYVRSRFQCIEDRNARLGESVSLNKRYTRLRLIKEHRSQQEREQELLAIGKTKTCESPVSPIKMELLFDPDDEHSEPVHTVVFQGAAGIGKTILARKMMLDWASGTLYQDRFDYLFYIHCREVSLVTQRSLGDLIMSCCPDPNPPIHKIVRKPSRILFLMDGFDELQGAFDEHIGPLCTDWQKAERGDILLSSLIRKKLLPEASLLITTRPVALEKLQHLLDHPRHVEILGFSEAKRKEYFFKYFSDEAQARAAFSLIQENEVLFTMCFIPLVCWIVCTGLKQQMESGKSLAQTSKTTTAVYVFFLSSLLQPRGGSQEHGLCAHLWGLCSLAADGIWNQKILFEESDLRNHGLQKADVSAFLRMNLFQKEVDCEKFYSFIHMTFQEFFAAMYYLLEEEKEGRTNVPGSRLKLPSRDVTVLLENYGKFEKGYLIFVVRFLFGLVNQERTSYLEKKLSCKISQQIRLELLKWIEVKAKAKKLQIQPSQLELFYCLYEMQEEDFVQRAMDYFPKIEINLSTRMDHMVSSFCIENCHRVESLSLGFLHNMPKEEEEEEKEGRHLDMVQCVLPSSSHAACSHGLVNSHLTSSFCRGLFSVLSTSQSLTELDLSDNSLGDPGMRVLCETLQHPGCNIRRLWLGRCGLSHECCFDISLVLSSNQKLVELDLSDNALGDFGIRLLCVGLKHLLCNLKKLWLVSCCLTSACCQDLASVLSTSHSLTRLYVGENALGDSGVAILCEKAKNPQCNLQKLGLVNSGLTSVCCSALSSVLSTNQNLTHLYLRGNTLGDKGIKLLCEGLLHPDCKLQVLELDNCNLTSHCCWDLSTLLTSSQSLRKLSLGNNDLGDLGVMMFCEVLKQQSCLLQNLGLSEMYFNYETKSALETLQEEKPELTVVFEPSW

A word on the pIC50: it is −log10 of the IC50, conventionally taken in molar units. A higher pIC50 goes with a small IC50. As to `Cn1nc(S(=O)(=O)NC(=O)Nc2c3c(c(Br)c4c2CCC4)CCC3)cc1C(C)(C)O` [Example 2, N-((8-Bromo-1,2,3,5,6,7-hexahydro-s-indacen-4-yl)carbamoyl)-5-(2-hydroxypropan-2-yl)-1-methyl-1H-pyrazole-3-sulfonamide], the negative logarithm of the IC50 (pIC50) was ≥ 6.80. In the case of `Cn1nc(S(=O)(=O)NC(=O)Nc2c3c(c(C#N)c4c2CCC4)CCC3)cc1C(C)(C)O` [Example 1, N-((8-Cyano-1,2,3,5,6,7-hexahydro-s-indacen-4-yl)carbamoyl)-5-(2-hydroxypropan-2-yl)-1-methyl-1H-pyrazole-3-sulfonamide], the negative logarithm of the IC50 (pIC50) was 6.19 to 6.80.

The values are drawn from US11905252B2, “Compounds” (INFLAZOME LIMITED, priority 2018, dated 2024).
